Earlier results as cited in US5990112A, “Inhibitors of metalloproteases pharmaceutical compositions comprising same and methods of their use” (Affymax Technologies N.V., priority 1996, dated 1999).

Tests used:
[1] = target: human rheumatoid synovial collagenase
[2] = target: rabbit bone proteoglycanase; settings: Delaisse et al. 1985

IC50 [1]: < 8000 nM
IC50 [2]: 500 nM
SMILES: CNC(=O)[C@H](Cc1ccc(OC)cc1)NC(=O)[C@H](CC(C)C)NC(CCNC(=O)OCc1ccccc1)C(=O)O (stereo partly drawn) [N-[3-(benzyloxy-carbonyl)amino-1-carboxy-n-propyl]-L-leucyl-O-methyl-L-tyrosine, N-methylamide]
